From patent US10993983B2, “Cyclic peptide epitopes and small-molecule mimics for inducing autophagy” (TRUSTEES OF TUFTS COLLEGE, priority 2016, dated 2021)
Marks after values point to notes of the source that are not given here. Where no end group is shown, it is not given here. [ ]: non-standard residue; d: D form.

How the values were obtained:
Type in all cases: cell-based
HeLa cells = assay: Autophagy induction judged by p62 and LC3 immunoblots together; parameters: key to Activity compared to wild-type WT / Activity (μM) 10, single symbol / Activity (μM) 30, single symbol / Activity (μM) 50, single symbol / Activity (μM) 100, single symbol: −: activity not reported; 0: decreased vs. WT; +: similar to WT; ++: modest increase vs. WT; +++: significant increase vs. WT; conditions: for Activity compared to wild-type WT: Tat-linked linear peptides, summation of p62 degradation assay and LC3 marker assay; for Activity (μM) 10, single symbol: 10 μM
Experimental: This 10-mer sequence was substituted with various thiol-containing amino acids at various positions, and then cross-linked with various linkers as described above (FIG. 5, a and FIG. 6).
Cells were treated with peptide in OPTI-MEM (Thermo Scientific) acidified with 0.15% (v/v) 6N HCl for 3 hour. Cells were rinsed with Dulbecco's phosphate buffered saline (PBS) and lysed in lysis buffer (20 mM HEPES, 150 mM NaCl, 1 mM EDTA, 1% Triton X-100, protease inhibitor cocktail (Roche) on ice for 1 hour. Cell lysates were centrifuged at 16,000 g for 10 min at 4° C. and analyzed by SDS-PAGE and transferred to PVDF membranes. The membranes were blocked 5% non-fat dry milk (NFDM) in PBST (PBS+0.05% Tween-20) for 1 hour, then incubated overnight at 4° C. with primary antibody in 5% NFDM in PBST. The blots were washed with PBST and incubated with HRP-conjugated secondary antibodies diluted in 5% NFDM in PBST for 1 hour at room temperature. Membranes were washed with PBST and visualized with SuperSignal West Pico Chemiluminescent Substrate (Thermo Scientific). Semi-quantitative results were obtained by noting the lowest concentration at which both p62 degradation and LC3-I to LC3-II conversion were observed.
(SEQ ID NO: 16)-Sequence. […] The N-terminus was capped with an acetyl group while the C terminus was capped with a —C(O)—NH2 group. The activity reported is a summation of results from both the p62 degradation assay and the LC3 marker assay.

p62 = p62 degradation assay (p62/actin immunoblot); parameters: key: −: activity not reported; 0: decreased vs. WT; +: similar to WT; ++: modest increase vs. WT; +++: significant increase vs. WT; conditions: for Activity (μM) 10, p62/actin assay activity: 10 μM; for Activity (μM) 30, p62/actin assay activity: 30 μM; for Activity (μM) 50, p62/actin assay activity: 50 μM; for Activity (μM) 100, p62/actin assay activity: 100 μM
LC3 = LC3 marker assay (LC3-I to LC3-II conversion immunoblot); parameters: key: −: activity not reported; 0: decreased vs. WT; +: similar to WT; ++: modest increase vs. WT; +++: significant increase vs. WT; conditions: for Activity (μM) 10, LC3 assay activity: 10 μM; for Activity (μM) 30, LC3 assay activity: 30 μM; for Activity (μM) 50, LC3 assay activity: 50 μM; for Activity (μM) 100, LC3 assay activity: 100 μM
[1] = Table 4, control inactive Tat-Beclin mutant, first symbol
[2] = Table 8, control compound T25, first symbol
[3] = Table 3, control vehicle, first symbol
[4] = Table 4, control inactive Tat-Beclin mutant, second symbol
[5] = Table 8, control compound T25, second symbol
[6] = Table 3, control vehicle, second symbol

FNATFEIWH [Compound T30, Tat-linked linear peptide]
Activity compared to wild-type WT (HeLa cells): +

FNATFEIWHD [Compound T21, Tat-linked linear peptide]
Activity compared to wild-type WT (HeLa cells): ++

FNATFHIWH [Compound T31, Tat-linked linear peptide]
Activity compared to wild-type WT (HeLa cells): +

GFNATFEIWHD [Compound T24, Tat-linked linear peptide]
Activity compared to wild-type WT (HeLa cells): 0

TFNATFEIWHD [Compound T22, Tat-linked linear peptide]
Activity compared to wild-type WT (HeLa cells): 0

VCNACFHIWH [Compound 3]
Activity (μM) 10, p62/actin assay activity (p62; Table 3, control vehicle, first symbol of cell): 0/0 | Activity (μM) 10, p62/actin assay activity (p62; [1]): 0 | Activity (μM) 20, p62/actin assay activity (p62; 20 μM, Table 3, control vehicle, first symbol): + | Activity (μM) 30, p62/actin assay activity (p62; [1]): 0 | Activity (μM) 30, p62/actin assay activity (p62; [2]): 0/0 | Activity (μM) 50, p62/actin assay activity (p62; [3]): ++ | Activity (μM) 50, p62/actin assay activity (p62; [1]): 0 | Activity (μM) 50, p62/actin assay activity (p62; [2]): + and +++/+++ | Activity (μM) 100, p62/actin assay activity (p62; [3]): +++/+++ | Activity (μM) 100, p62/actin assay activity (p62; [1]): 0/0 | Activity (μM) 100, p62/actin assay activity (p62; [2]): +++/+++ | Activity (μM) 10, starred cell, p62/actin assay activity (p62; Table 8, 10 μM marked * (footnote: data taken at 20 instead of 30 μM), first symbol): 0/0* | Activity (μM) 10, single symbol (HeLa cells; Table 4, starred rows (asterisk not explained)): 0 | Activity (μM) 30, single symbol (HeLa cells; 30 μM, Table 4, starred rows (asterisk not explained)): 0 | Activity (μM) 50, single symbol (HeLa cells; 50 μM, Table 4, starred rows (asterisk not explained)): 0 | Activity (μM) 100, single symbol (HeLa cells; 100 μM, Table 4, starred rows (asterisk not explained)): 0 | Activity (μM) 10, LC3 assay activity (LC3; Table 3, control vehicle, second symbol of cell): 0/0 | Activity (μM) 10, LC3 assay activity (LC3; [4]): ++ | Activity (μM) 20, LC3 assay activity (LC3; 20 μM, Table 3, control vehicle, second symbol): +++ | Activity (μM) 30, LC3 assay activity (LC3; [4]): +++ | Activity (μM) 30, LC3 assay activity (LC3; [5]): 0/0 | Activity (μM) 50, LC3 assay activity (LC3; [6]): +++ | Activity (μM) 50, LC3 assay activity (LC3; [4]): + | Activity (μM) 50, LC3 assay activity (LC3; [5]): 0 and +++/+++ | Activity (μM) 100, LC3 assay activity (LC3; [6]): +++/+++ | Activity (μM) 100, LC3 assay activity (LC3; [4]): 0/0 | Activity (μM) 100, LC3 assay activity (LC3; [5]): +++/+++ | Activity (μM) 10, starred cell, LC3 assay activity (LC3; Table 8, 10 μM marked * (footnote: data taken at 20 instead of 30 μM), second symbol): 0/0*

VCNATCHIWH (V[dC]NAT[dC]HIWH; cysteine pairing not given here; also: Formula I modifications, R1 T, Z MP) [Compound 75]
Activity (μM) 10, single symbol (HeLa cells; Table 8, one symbol only): +

VFDATFEIWHD [Compound T3, Tat-linked linear peptide]
autophagy induction, result in words (HeLa cells; HeLa cells, p62 and LC3 immunoblots): less than Tat-beclin-1

VFNACFEIWHD [Compound T5, Tat-linked linear peptide]
Activity compared to wild-type WT (HeLa cells): 0

VFNATFDIWHD [Compound T7, Tat-linked linear peptide]
Activity compared to wild-type WT (HeLa cells): +

VFNATFEFWHD [Compound T18, Tat-linked linear peptide]
Activity compared to wild-type WT (HeLa cells): +

VFNATFEIFHD [Compound T9, Tat-linked linear peptide]
Activity compared to wild-type WT (HeLa cells): +

VFNATFEIWHE [Compound T11, Tat-linked linear peptide]
Activity compared to wild-type WT (HeLa cells): +

VFNATFEIWYD [Compound T10, Tat-linked linear peptide]
Activity compared to wild-type WT (HeLa cells): +

VFNATFELWHD [Compound T8, Tat-linked linear peptide]
Activity compared to wild-type WT (HeLa cells): ++

VFNATFEMWHD [Compound T16, Tat-linked linear peptide]
Activity compared to wild-type WT (HeLa cells): +

VFNATFERWHD [Compound T20, Tat-linked linear peptide]
Activity compared to wild-type WT (HeLa cells): +

VFNATFEVWHD [Compound T14, Tat-linked linear peptide]
Activity compared to wild-type WT (HeLa cells): +

VFNATFEYWHD [Compound T19, Tat-linked linear peptide]
Activity compared to wild-type WT (HeLa cells): +

VFNATWEIWHD [Compound T6, Tat-linked linear peptide]
Activity compared to wild-type WT (HeLa cells): 0

VLNATFEIWHD [Compound T15, Tat-linked linear peptide]
Activity compared to wild-type WT (HeLa cells): +

VWAATFHIWHD [Compound T36, Tat-linked linear peptide]
Activity compared to wild-type WT (HeLa cells): +

VWNAAFHIWHD [Compound T37, Tat-linked linear peptide]
Activity compared to wild-type WT (HeLa cells): ++

VWNATFAIWHD [Compound T39, Tat-linked linear peptide]
Activity compared to wild-type WT (HeLa cells): +++

VWNATFEIWHD [Compound T2, Tat-linked linear peptide]
Activity compared to wild-type WT (HeLa cells): ++

VWNATFELWHD [Compound T12, Tat-linked linear peptide]
Activity compared to wild-type WT (HeLa cells): +

VWNATFHIAHD [Compound T41, Tat-linked linear peptide]
Activity compared to wild-type WT (HeLa cells): +

VWNATFHIWAD [Compound T42, Tat-linked linear peptide]
Activity compared to wild-type WT (HeLa cells): +++

VWNATFHIWH [Compound T33, Tat-linked linear peptide]
Activity compared to wild-type WT (HeLa cells): +++

VWNATFHIWHD [Compound T17, Tat-linked linear peptide]
Activity (μM) 10, single symbol (HeLa cells; Table 6, control DMSO, one symbol only): + | Activity compared to wild-type WT (HeLa cells): +++

VWNATFHYWHD [Compound T26, Tat-linked linear peptide]
Activity compared to wild-type WT (HeLa cells): +++

VYNATFEIWHD [Compound T13, Tat-linked linear peptide]
Activity compared to wild-type WT (HeLa cells): 0

WNATFHIW [Compound T35, Tat-linked linear peptide]
Activity compared to wild-type WT (HeLa cells): ++

WNATFHIWH [Compound T32, Tat-linked linear peptide]
Activity compared to wild-type WT (HeLa cells): ++

WNATFHIWHD [Compound T34, Tat-linked linear peptide]
Activity compared to wild-type WT (HeLa cells): +++
